Test results: paper PMC5651374 (Alzheimer's & Dementia : Translational Research & Clinical …, 2016)

Details: brain imaging

ability to cross the BBB, dye injected alone: could not on its own cross the BBB
SMILES: C[N+]1=C(C=CC=CC=C2N(CCCCCC(=O)ON3C(=O)CCC3=O)c3ccc4ccccc4c3C2(C)C)C(C)(C)c2c1ccc1ccccc21.[Cl-] [Cy5 dye, Cyanine5.5 NHS ester dye]
